Measured values from patent publication US7070965B1, “Small molecule anticancer compounds and related production process” (priority 1998, dated 2006).
In brackets after ≈: the same amount, converted by molar mass.

Key:
Determination of LD50 = assay type: in vivo
Method: 13-methyltetradecanoic acid (iso-C15) purchased from Sigma (St. Louis, Mo.) was prepared by dissolving in NaOH solution and then in 0.35% Tween 80 with pH7.5.
ICR mice weighing 20.5–22.5 g of both sexes were treated with iso-C15 i.p. qd×3 in test groups and with solvent of same dose as in a control group. The doses ranged from 10 to 800 mg/kg of iso-C15 and two mice were included in each dose group (10 mg/kg, 20 mg/kg, 40 mg/kg, 80 mg/kg, 160 mg/kg, and 800 mg/kg). The general condition of these mice were monitored daily for seven days.

K562 leukemia cell line = test: DNA fragmentation gel electrophoresis; assay type: cell-based, human; settings: 60 μg/ml
Method: The gel electrophoresis assay was used for the detection of apoptosis-specific internucleosonal DNA degradation in these cells. […] After centrifuged at 14,000 RPM for 20 min at 4° C., the supernatants were transferred to new tubes and treated with RNase and proteinase K respectively. Supernatants were extracted with phenol/chloroform twice, and fragmented DNA was precipitated in ethanol. Samples were electrophoresed in a 1.5% agarose gel in 1× TAE buffer. The gel was stained with ethidium bromide and destained with distilled water. The fragmented DNA was then visualized under UV light.

normal human PBLs = test: In situ cell death detection, POD; assay type: cell-based; settings: 60 μg/ml, 8 hours
Description: In Situ Cell Death Detection Kit, POD (Mannheim Boehringer GmbH) was used to detect the individual apoptotic cells. Cleavage of genomic DNA during apoptosis may yield double-stranded, low molecular weight DNA fragments as well as single strand breaks in high molecular weight DNA. Those DNA strand breaks can be identified by labeling free 3′-OH termini with modified nucleotides in an enzymatic reaction. In this kit terminal deoxynucleotidyl transferase (TdT) is used to label free 3′-OH ends in genomic DNA with fluorescein-dUTP. The incorporated fluorescein is visualized under fluorescence microscope directly. The incorporated fluorescein can also bind to anti-fluorescein antibody POD and be detected by substrate reaction. Stained cells can be analyzed under light microscope.
Four human tumor cell lines, K-562 human leukemia, SNU-1 human gastric carcinoma cell lines, MCF-7 human breast adenocarcinoma and H1688 human small cell lung carcinoma cell lines, as well as Human PBLs were treated with iso-C15 (60 μg/ml).
H1688, K-562 and DU145 human cancer cells and normal human PBLs were added with POD and incubated 30 min at 37° C., washed three times with PBS, then reacted with substrate AEC and incubated for 10 min at room temperature. The cells were analyzed under light microscope. […] It is evidenced that iso-C15 induces apoptosis of cancer cells but not normal human cells.

[1] = tested on: DU-145 human prostate carcinoma cell lines; test: Apoptosis morphology, H&E, light microscope; assay type: cell-based; settings: 60 μg/ml, 8 hours
Method: Human cancer cell lines DU-145 (prostate cancer), K562 (leukemia), HCT116 (colon cancer), H1688 (lung cancer), SUN423 (hepatocarcinoma), MCF7 (breast cancer), CRL-1687 (pancreatic cancer), and SUN-1 (gastric cancer) were obtained from American Type Culture Collection (ATCC). 30 ml blood was collected from a health person and normal peripheral mononuclear cells were separated by Ficoll separation solution (Sigma). All cells were maintained in RPMI 1640, DMEM, or McCoy medium supplemented with 10% FCS, […] streptomycin and 100 u/ml penicillin. Normal human peripheral mononuclear cells, K562 and SUN-1 were suspended cells. After spinning at 1,500 RPM for 5 min, supernatants were discharged and cells were resuspended and expended in fresh medium. The other tumor cell lines were adherent cells and were dispersed with 0.05% trypsin/0.01% EDTA (Irvine Scientific, CA) for expansion. Cells were seeded in T75 flasks at 2×10^6 cells/flask in culture medium supplemented with 10% fetal bovine serum and incubated overnight at 37° C. with 5% CO2. The adherent cells attached to the plate were striped with disposable cell scrapers (Fisher Scientific) after treated either with 1% iso-C15, anteiso-C15 or control solution for 1, 2, 4, 8 and 24 hours and then combined with respective float cells. […]

[2] = tested on: UVB radiation-induced skin tumor; test: Chemoprevention of UVB-induced skin cancer; assay type: in vivo, SKH-1 hairless mice; settings: topical 200 μl of 10% iso-C15, 30 weeks, vs vehicle-treated group
Method: 13-methyltetradecanoic acid (iso-C15) was prepared by dissolving in NaOH solution and then in 0.8% Tween 80 with pH 7.5, with resulting concentration 10%.
Forty female SKH-1 hairless mice were divided into control and test groups, with 20 in each. The mice in both groups were treated topically once with 5.12 μg of DMBA dissolved in 200 μl acetone per mouse to achieve tumor initiation. One week later (day 8), animals in the test group were applied topically with 200 μl iso-C15 per application per mouse per day. The control group received 200 μl Tween 80 per application per mouse per day. Thirty minutes later, the animals in both groups were exposed to UVB (290–320 nm) radiation at a dose of 180 mJ/cm^2 per day to achieve UVB radiation-induced tumor promotion. The iso-C15 or vehicle treatments followed by UVB irradiation were performed twice a week up to 30 weeks from the start of UVB exposure. The animals were evaluated for tumor incidence at the end of 30 weeks.

[3] = tested on: SNU-1 human gastric carcinoma; test: Cytotoxicity ID50/ID75/ID90, viability assessment; assay type: cell-based; settings: 48 hours
Method: (§1) PBLs, K-562 and SNU-1 cells in suspension culture were seeded in 96-well microplates at a density of 5×10^4 cells/well for K-562 and SNU-1, and 1×10^5 cells/well for PBLs. iso-C15 were diluted with medium to provide different concentrations (0, 1.5, 3.0, 6.0, 15.0, 30.0, and 60.0 μg/ml). Both untreated and solvent (NaOH and Tween 80) treated cells served as controls. After incubation for 48 hours at 37° C., cells were collected directly from the wells for viability assessment.
(§2) The ID50, ID75 and ID90 were determined in duplicate in every set of experiments, and each experiment was repeated three times under identical conditions. ID50, ID75 and ID90 were defined as the concentration of iso-C15 required to kill 50, 75 or 90%, respectively, of cells (compared with that in untreated cells) and computed using CalcuSyn for Windows software (Biosoft, Cambridge UK) based on Median Effect method by Dr. T. C. Chou.

K-562 human leukemia = test: Cytotoxicity ID50/ID75/ID90, viability assessment; assay type: cell-based; settings: 48 hours
Method: as §1, §2

## CC(C)CCCCCCCCCCCC(=O)O [iso-C15, 13-methyltetradecanoic acid]
Determination of LD50; both sexes, ICR, mouse, in vivo, ip
  LD50 at 7 days: > 800 mg/kg
Determination of LD50; i.p. qd×3, dose up to 800 mg/kg, monitored seven days
  mortality: No mice died
K562 leukemia cell line
  apoptotic DNA fragmentation: fragmented low molecular weight DNA bands were seen at 2 hour and were prominent at 8 hour treated
Normal human PBLs
  apoptotic cells stained, POD: few stained apoptotic cells were seen
[1]
  morphological changes indicative of apoptosis: membrane blebs were noted
[2]
  reduction in tumor incidence: 40%
  reduction of tumor volume: 90%
[3]
  ID75: 47.43 ± 4.95 µg/mL (≈ 196 µM)
  ID90: 80.49 ± 10.03 µg/mL (≈ 332 µM)
K-562 human leukemia
  ID75: 22.27 ± 4.60 µg/mL (≈ 91.9 µM)
  ID90: 43.57 ± 6.71 µg/mL (≈ 180 µM)
